These are literature values, as cited in patent US7858803B2, “Imaging tracers for early detection and treatment of amyloid plaques caused by Alzheimer's disease and related disorders” (The General Hospital Corporation, priority 2007, dated 2010).

The conditions of data set [1]: normal mice, iv, at 2 min after injection.
The subject of a further data set is brain amyloid deposits. The settings on record: APP23 transgenic mice, brain sections at 180 min after iv injection.

Take `CNc1ccc(C=Cc2nc3ccc(OCCF)cc3o2)cc1` [BF-168, 6-(2-fluoroethoxy)-2-[2-(4-methylaminophenyl)ethenyl]-benzoxazole]: the initial brain uptake in data set [1] was 3.9 % injected dose/gm. Also, the “labeling of brain amyloid deposits in autoradiograms” value in the data set with brain amyloid deposits is given as “selective labeling of brain amyloid deposits with little non-specific binding”.
